Literature values, collected in patent publication US20110071125A1, “SUBSTITUTED PHENYLAMINO-BENZENE DERIVATIVES USEFUL FOR TREATING HYPER-PROLIFERATIVE DISORDERS AND DISEASES ASSOCIATED WITH MITOGEN EXTRACELLULAR KINASE ACTIVITY” (priority 2007, published 2011).

System: colon cancer
Conditions: oral treatment, mouse models, ref. [18]

O=C(NOCC1CC1)c1ccc(F)c(F)c1Nc1ccc(I)cc1Cl [PD184352]
colon cancer growth in vivo: inhibit colon cancer growth in vivo
